According to US9428519B2, “Acylated derivative of homoharringtonine, preparation method therefor, and application thereof” (HANGZHOU BENSHENG PHARMACEUTICAL CO., LTD., priority 2011, dated 2016):
In brackets after ≈: the same amount, converted by molar mass.

Legend:
PC-3 (prostate cancer) = experiment: MTT growth inhibition of human solid tumor cells, 72 h; type: cell-based
Summary of the method: (§1)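 Viability (% of untreated control) was read by MTT after 72 h exposure to homoharringtonine derivatives at graded concentrations, 37° C, 5% CO2. Before treatment, 4000 cells per well were pre-cultured 24 h in 10% FBS-supplemented high-glucose DMEM.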

MG63 (osteosarcoma) = experiment: as above; type: cell-based
Summary of the method: as §1

[1] = system: PANC-1 (pancreatic cancer); experiment: as above; type: cell-based
Summary of the method: as §1

[2] = system: MGC 803 (human gastric cancer cell); experiment: as above; type: cell-based; settings: Homo sapiens, MGC-803
Summary of the method: as §1

[3] = system: Hep-2 (laryngeal carcinoma); experiment: as above; type: cell-based; settings: Homo sapiens, HEp-2
Summary of the method: as §1

[4] = system: CNE (nasopharyngeal carcinoma cell); experiment: as above; type: cell-based; settings: Homo sapiens, MTT
Summary of the method: as §1

[5] = system: U87 MG (malignant glioma cell); experiment: as above; type: cell-based; settings: Homo sapiens, U-87 MG
Summary of the method: as §1

[6] = system: RKO (human colon adenocarcinoma cell); experiment: as above; type: cell-based
Summary of the method: as §1

[7] = system: SK-OV-3 (ovarian cancer cell); experiment: as above; type: cell-based
Summary of the method: as §1

[8] = system: Becap37 (human breast cancer cell); experiment: as above; type: cell-based; settings: Homo sapiens
Summary of the method: as §1

[9] = system: CaES-17 (esophageal cancer cell); experiment: as above; type: cell-based; settings: Homo sapiens, CaEs17
Summary of the method: as §1

A549 (human lung cancer) = experiment: as above; type: cell-based; settings: Homo sapiens, A549
Summary of the method: as §1

[10] = system: Hela (human cervical cancer cell); experiment: as above; type: cell-based
Summary of the method: as §1

[11] = system: Huh7 (human liver cancer cell); experiment: as above; type: cell-based; settings: Homo sapiens, Huh-7
Summary of the method: as §1

[12] = Body weight and toxicity in tumor-bearing BALB/c-nu nude mice; type: in vivo; settings: for Weight (g) Final / Weight (g) Initial: 10 days
Method: Animal: BALB/c-nu nude mice, 8 weeks, female, purchased from Shanghai Laboratory Animal Center of Chinese Academy of Sciences, China.
BS-HH-002, wherein BS-HH-002-0.1 indicates a dosage of 0.1 mg/kg each time, BS-HH-002-0.3 indicates a dosage of 0.3 mg/kg each time, BS-HH-002-0.5 indicates a dosage of 0.5 mg/kg each time, and BS-HH-002-1.0 indicates a dosage of 1.0 mg/kg each time.
Under sterile conditions, the above tumor cells in logarithmic growth phase are collected and injected in an amount of 2×10^7/0.2 ml/nude mice (cell viability>95%) into the right subaxillary of the nude mice by subcutaneous injection, thus establishing a BALB/c-nu nude mice model bearing transplanted tumor of gastric cancer. The mice are administered on the third day after the inoculation, wherein the experimental groups are intragastrically administered in an experimentally designed amount, and the negative control group is intragastrically administered with sterile water. Administration takes place at 8:00 for one time a day, at 8:00 and 14:00 for twice a day, and at 8:00, 14:00 and 20:00 with 6-hour intervals for three times day. The administrations are successive for 10 days. The day before administration is Day 0 and the weight and tumor size are determined approximately every 5 days to produce a plot on weight and tumor growth. On Day 27, the mice are dissected and the tumors are taken out and weighed. Based on a tumor inhibition rate of zero for the control group, the tumor inhibition rate (%) after the effect of the medicament is calculated.
The values determined are presented as mean±standard error (M±SD). The experimental data for each group are analyzed by the One-way ANOVA method of SPSS 18.0 Statistical Software, and p<0.05 is deemed as having statistically significant difference.

[13] = 0.1 mg/kg/time, 1 time/day intragastric
[14] = 0.1 mg/kg/time, 2 times/day intragastric
[15] = 0.1 mg/kg/time, 3 times/day intragastric
[16] = 0.3 mg/kg/time, 1 time/day intragastric
[17] = 0.5 mg/kg/time, 1 time/day intragastric
[18] = 0.5 mg/kg/time, 2 times/day intragastric
[19] = 0.5 mg/kg/time, 3 times/day intragastric
[20] = 1.0 mg/kg/time, 1 time/day intragastric
[21] = 1.0 mg/kg/time, 3 times/day intragastric

Question: For COC(=O)C[C@](O)(CCCC(C)(C)OC(C)=O)C(=O)O[C@@H]1C(OC)=C[C@]23CCCN2CCc2cc4c(cc2[C@H]13)OCO4 [BS-HH-002, 6-acetylhomoharringtonine], which IC50 (PC-3 (prostate cancer); Homo sapiens, MTT) is on record?
Answer: Its IC50 is 0.013 µg/mL (≈ 0.0221 µM).

Question: What about the IC90 (PC-3 (prostate cancer); Homo sapiens, MTT) of the same molecule?
Answer: Its IC90 is over 16 µg/mL.

Question: And the “anti-PC-3 effect relative to homoharringtonine” value (PC-3 (prostate cancer); vs HHT)?
Answer: Its value is “more than 6 fold”.

Question: And the IC50 (MG63 (osteosarcoma); Homo sapiens, MG-63, MTT)?
Answer: Its IC50 is 0.006 µg/mL (≈ 0.0102 µM).

Question: What about the IC90 (MG63 (osteosarcoma); Homo sapiens, MG-63, MTT) of the same molecule?
Answer: The IC90 was 0.42 µg/mL (≈ 0.715 µM).

Question: And the “anti-MG63 effect relative to homoharringtonine” value (MG63 (osteosarcoma); vs HHT)?
Answer: Its value is “substantially superior”.

Question: What about the IC50 ([1]; Homo sapiens, PANC-1, MTT) of the same molecule?
Answer: The IC50 was 0.012 µg/mL (≈ 0.0204 µM).

Question: What about the IC90 ([1]; Homo sapiens, PANC-1, MTT) of the same molecule?
Answer: Its IC90 is over 16 µg/mL.

Question: And the “anti-PANC-1 effect relative to homoharringtonine” value ([1]; vs HHT)?
Answer: Its value is “more than 3 fold”.

Question: What about the IC50 [2] of the same molecule?
Answer: Its IC50 is 0.008 µg/mL (≈ 0.0136 µM).

Question: What about the IC90 [2] of the same molecule?
Answer: The IC90 was 0.056 µg/mL (≈ 0.0953 µM).

Question: What about the IC50 [3] of the same molecule?
Answer: The IC50 was 0.0037 µg/mL (≈ 0.0063 µM).

Question: What about the IC90 [3] of the same molecule?
Answer: Its IC90 is over 16 µg/mL.

Question: What about the IC50 [4] of the same molecule?
Answer: The IC50 was 0.024 µg/mL (≈ 0.0408 µM).

Question: And the IC90 [4]?
Answer: Its IC90 is over 16 µg/mL.

Question: And the IC50 [5]?
Answer: Its IC50 is 0.002 µg/mL (≈ 0.0034 µM).

Question: What about the IC90 [5] of the same molecule?
Answer: The IC90 was 0.012 µg/mL (≈ 0.0204 µM).

Question: And the IC50 ([6]; Homo sapiens, MTT)?
Answer: The IC50 was 0.002 µg/mL (≈ 0.0034 µM).

Question: And the IC90 ([6]; Homo sapiens, MTT)?
Answer: Its IC90 is 0.01 µg/mL (≈ 0.017 µM).

Question: And the “anti-RKO effect relative to homoharringtonine” value ([6]; vs HHT)?
Answer: The value was “substantially superior”.

Question: And the IC50 ([7]; Homo sapiens, SK-OV-3, MTT)?
Answer: Its IC50 is 0.05 µg/mL (≈ 0.0851 µM).

Question: And the IC90 ([7]; Homo sapiens, SK-OV-3, MTT)?
Answer: Its IC90 is over 16 µg/mL.

Question: And the “anti-SK-OV-3 effect relative to homoharringtonine” value ([7]; vs HHT)?
Answer: The value was 2 fold.

Question: And the IC50 [8]?
Answer: The IC50 was 0.005 µg/mL (≈ 0.00851 µM).

Question: What about the IC90 [8] of the same molecule?
Answer: Its IC90 is 16 µg/mL (≈ 27.2 µM).

Question: What about the IC50 [9] of the same molecule?
Answer: The IC50 was 0.02 µg/mL (≈ 0.034 µM).

Question: What about the IC90 [9] of the same molecule?
Answer: Its IC90 is over 16 µg/mL.

Question: And the IC50 (A549 (human lung cancer))?
Answer: Its IC50 is 0.013 µg/mL (≈ 0.0221 µM).

Question: And the IC90 (A549 (human lung cancer))?
Answer: The IC90 was over 16 µg/mL.

Question: And the IC50 ([10]; Homo sapiens, HeLa, MTT)?
Answer: Its IC50 is 0.0077 µg/mL (≈ 0.0131 µM).

Question: What about the IC90 ([10]; Homo sapiens, HeLa, MTT) of the same molecule?
Answer: The IC90 was 16 µg/mL (≈ 27.2 µM).

Question: And the “anti-Hela effect relative to homoharringtonine” value ([10]; vs HHT)?
Answer: Its value is “more than 2.5 fold”.

Question: And the IC50 [11]?
Answer: The IC50 was 0.0021 µg/mL (≈ 0.00357 µM).

Question: And the IC90 [11]?
Answer: The IC90 was 0.018 µg/mL (≈ 0.0306 µM).

Question: And the “Weight (g) Final” value [12, 13]?
Answer: Its value is 27.18 ± 3.62 g.

Question: What about the “Weight (g) Initial” value [12, 13] of the same molecule?
Answer: The value was 18.88 ± 0.56 g.

Question: And the “Weight (g) Final” value [12, 14]?
Answer: The value was 25.63 ± 1.06 g.

Question: What about the “Weight (g) Initial” value [12, 14] of the same molecule?
Answer: The value was 21.35 ± 0.34 g.

Question: What about the “Weight (g) Final” value [12, 15] of the same molecule?
Answer: The value was 28.50 ± 2.83 g.

Question: And the “Weight (g) Initial” value [12, 15]?
Answer: The value was 24.58 ± 0.39 g.

Question: And the “Weight (g) Final” value [12, 16]?
Answer: Its value is 24.30 ± 1.38 g.

Question: And the “Weight (g) Initial” value [12, 16]?
Answer: Its value is 18.98 ± 0.51 g.

Question: And the “Weight (g) Final” value [12, 17]?
Answer: The value was 25.78 ± 1.15 g.

Question: And the “Weight (g) Initial” value [12, 17]?
Answer: Its value is 20.10 ± 0.22 g.

Question: What about the “Weight (g) Final” value [12, 18] of the same molecule?
Answer: Its value is 26.68 ± 1.42 g.

Question: And the “Weight (g) Initial” value [12, 18]?
Answer: Its value is 22.28 ± 0.43 g.

Question: What about the “Weight (g) Final” value [12, 19] of the same molecule?
Answer: The value was 26.33 ± 2.76 g.

Question: What about the “Weight (g) Initial” value [12, 19] of the same molecule?
Answer: Its value is 23.50 ± 0.37 g.

Question: What about the “Weight (g) Final” value [12, 20] of the same molecule?
Answer: Its value is 25.95 ± 0.94 g.

Question: And the “Weight (g) Initial” value [12, 20]?
Answer: Its value is 20.45 ± 0.76 g.

Question: What about the “Weight (g) Final” value [12, 21] of the same molecule?
Answer: The value was 29.98 ± 1.32 g.

Question: What about the “Weight (g) Initial” value [12, 21] of the same molecule?
Answer: Its value is 26.98 ± 0.75 g.

Question: And the “toxic and side effect” value ([12]; all dosages 0.1-1.0 mg/kg)?
Answer: The value was “none of the dosages causes obvious toxic and side effect”.

Question: What about the “animal deaths until dissection” value ([12]; all groups, until Day 27) of the same molecule?
Answer: Its value is “none of the animals has died”.
